From ChEMBL document CHEMBL6120979, “Cell penetrable peptide nucleic acids targeting PDZK1IP1 with anti-inflammatory potential in human keratinocytes” (Bioorg Med Chem Lett, 2025)
The source made the active and inactive calls. The calls are words filed in the database; no cut-off is given here.

How the values were obtained:
RNA [1] = test: Binding affinity to complementary RNA (unknown origin) with mismatch bases in sodium phosphate buffer; format: nucleic-acid assay
RNA [2] = test: Binding affinity to complementary RNA (unknown origin) in sodium phosphate buffer assessed as melting temperature of PNA-RNA duplex; format: nucleic-acid assay
Keratinocyte = test: Inhibition of PDZK1IP1 mRNA expression in human keratinocytes incubated for 24 hrs by RT-qPCR analysis; format: functional, cell-based

Compound	Activity (RNA [1])	Tm (RNA [2]) [°C]	inhibition (Keratinocyte)
Cc1cn(CC(=O)N(CCNC(=O)CN(CCNC(=O)CN(CCNC(=O)CN(CCNC(=O)CN(CCNC(=O)CN(CCNC(=O)CN(CCNC(=O)CN(CCNC(=O)CN(CCNC(=O)CN(CCNC(=O)CN(CCNC(=O)CN(CCNC(=O)CN(CCNC(=O)CN(CCN)C(=O)Cn2cc(C)c(=O)[nH]c2=O)C(=O)Cn2ccc(N)nc2=O)C(=O)Cn2cnc3c(N)nc(NCCCCCN)nc32)C(=O)Cn2cc3cc(COCCN)[nH]c3nc2=O)C(=O)Cn2cnc3c(=O)[nH]c(N)nc32)C(=O)Cn2cnc3c(=O)[nH]c(NCCCCCCN)nc32)C(=O)Cn2ccc(N)nc2=O)C(=O)Cn2cc(C)c(=O)[nH]c2=O)C(=O)Cn2cc3cc(COCCN)[nH]c3nc2=O)C(=O)Cn2ccc(N)nc2=O)C(=O)Cn2cc(C)c(=O)[nH]c2=O)C(=O)Cn2ccc(N)nc2=O)C(=O)Cn2cc3cc(COCCN)[nH]c3nc2=O)CC(=O)O)c(=O)[nH]c1=O	inactive	80.4	
Cc1cn(CC(=O)N(CCNC(=O)CN(CCNC(=O)CN(CCNC(=O)CN(CCNC(=O)CN(CCN)C(=O)Cn2ccc(N)nc2=O)C(=O)Cn2cc(C)c(=O)[nH]c2=O)C(=O)Cn2cc3cc(COCCN)[nH]c3nc2=O)C(=O)Cn2ccc(N)nc2=O)CC(=O)NCCN(CC(=O)NCCN(CC(=O)NCCN(CC(=O)NCCN(CC(=O)NCCN(CC(=O)NCCN(CC(=O)NCCN(CC(=O)NCCN(CC(=O)NCCN(CC(=O)O)C(=O)Cn2cc3cc(COCCN)[nH]c3nc2=O)C(=O)Cn2ccc(N)nc2=O)C(=O)Cn2cnc3c(N)nc(NCCCCCN)nc32)C(=O)Cn2ccc(N)nc2=O)C(=O)Cn2cnc3c(=O)[nH]c(N)nc32)C(=O)Cn2cnc3c(=O)[nH]c(NCCCCCCN)nc32)C(=O)Cn2cc(C)c(=O)[nH]c2=O)C(=O)Cn2cc3cc(COCCN)[nH]c3nc2=O)C(=O)Cn2ccc(N)nc2=O)c(=O)[nH]c1=O	inactive	79	
Cc1cn(CC(=O)N(CCN)CC(=O)NCCN(CC(=O)NCCN(CC(=O)NCCN(CC(=O)NCCN(CC(=O)NCCN(CC(=O)NCCN(CC(=O)NCCN(CC(=O)NCCN(CC(=O)NCCN(CC(=O)NCCN(CC(=O)NCCN(CC(=O)NCCN(CC(=O)NCCN(CC(=O)NCCN(CC(=O)NCCN(CC(=O)NCCN(CC(=O)NCCN(CC(=O)NCCN(CC(=O)NCCN(CC(=O)O)C(=O)Cn2cnc3c(=O)[nH]c(NCCCCCCN)nc32)C(=O)Cn2ccc3c(=O)[nH]c(N)nc32)C(=O)Cn2cnc3c(=O)[nH]c(N)nc32)C(=O)Cn2cnc3c(=O)[nH]c(NCCCCCCN)nc32)C(=O)Cn2cc(C)c(=O)[nH]c2=O)C(=O)Cn2ccc(N)nc2=O)C(=O)Cn2ccc(N)nc2=O)C(=O)Cn2ccc(N)nc2=O)C(=O)Cn2cc(C)c(=O)[nH]c2=O)C(=O)Cn2cc3cc(COCCN)[nH]c3nc2=O)C(=O)Cn2cnc3c(=O)[nH]c(N)nc32)C(=O)Cn2cnc3c(=O)[nH]c(N)nc32)C(=O)Cn2cnc3c(N)nc(NCCCCCN)nc32)C(=O)Cn2ccc(N)nc2=O)C(=O)Cn2cnc3c(=O)[nH]c(N)nc32)C(=O)Cn2cc(C)c(=O)[nH]c2=O)C(=O)Cn2cnc3c(=O)[nH]c(N)nc32)C(=O)Cn2cc(C)c(=O)[nH]c2=O)C(=O)Cn2cnc3c(=O)[nH]c(N)nc32)c(=O)[nH]c1=O	inactive	> 90	Dose-dependent-effect
Cc1cn(CC(=O)N(CCN)CC(=O)NCCN(CC(=O)NCCN(CC(=O)NCCN(CC(=O)NCCN(CC(=O)NCCN(CC(=O)NCCN(CC(=O)NCCN(CC(=O)NCCN(CC(=O)NCCN(CC(=O)NCCN(CC(=O)NCCN(CC(=O)NCCN(CC(=O)NCCN(CC(=O)O)C(=O)Cn2ccc(N)nc2=O)C(=O)Cn2cc3cc(COCCN)[nH]c3nc2=O)C(=O)Cn2cc(C)c(=O)[nH]c2=O)C(=O)Cn2ccc(N)nc2=O)C(=O)Cn2cnc3c(=O)[nH]c(NCCCCCCN)nc32)C(=O)Cn2cnc3c(=O)[nH]c(N)nc32)C(=O)Cn2cnc3c(N)nc(NCCCCCN)nc32)C(=O)Cn2ccc(N)nc2=O)C(=O)Cn2cnc3c(=O)[nH]c(NCCCCCCN)nc32)C(=O)Cn2cc(C)c(=O)[nH]c2=O)C(=O)Cn2cnc3c(=O)[nH]c(NCCCCCCN)nc32)C(=O)Cn2cc(C)c(=O)[nH]c2=O)C(=O)Cn2cnc3c(=O)[nH]c(NCCCCCCN)nc32)c(=O)[nH]c1=O	inactive	70.5	
Cc1cn(CC(=O)N(CCNC(=O)CN(CCNC(=O)CN(CCN)C(=O)Cn2ccc(N)nc2=O)C(=O)Cn2ccc(N)nc2=O)CC(=O)NCCN(CC(=O)NCCN(CC(=O)NCCN(CC(=O)NCCN(CC(=O)NCCN(CC(=O)NCCN(CC(=O)NCCN(CC(=O)NCCN(CC(=O)NCCN(CC(=O)NCCN(CC(=O)NCCN(CC(=O)O)C(=O)Cn2cnc3c(=O)[nH]c(N)nc32)C(=O)Cn2cnc3c(N)ncnc32)C(=O)Cn2cc3cc(COCCN)[nH]c3nc2=O)C(=O)Cn2ccc(N)nc2=O)C(=O)Cn2cnc3c(N)nc(NCCCCCN)nc32)C(=O)Cn2ccc(N)nc2=O)C(=O)Cn2cnc3c(=O)[nH]c(N)nc32)C(=O)Cn2cnc3c(=O)[nH]c(NCCCCCCN)nc32)C(=O)Cn2cc(C)c(=O)[nH]c2=O)C(=O)Cn2ccc(N)nc2=O)C(=O)Cn2cc3cc(COCCN)[nH]c3nc2=O)c(=O)[nH]c1=O	inactive	78.1	
Cc1cn(CC(=O)N(CCNC(=O)CN(CCNC(=O)CN(CCN)C(=O)Cn2ccc(N)nc2=O)C(=O)Cn2cc3cc(COCCN)[nH]c3nc2=O)CC(=O)NCCN(CC(=O)NCCN(CC(=O)NCCN(CC(=O)NCCN(CC(=O)NCCN(CC(=O)NCCN(CC(=O)NCCN(CC(=O)NCCN(CC(=O)NCCN(CC(=O)NCCN(CC(=O)NCCN(CC(=O)NCCN(CC(=O)NCCN(CC(=O)NCCN(CC(=O)NCCN(CC(=O)NCCN(CC(=O)NCCN(CC(=O)O)C(=O)Cn2ccc(N)nc2=O)C(=O)Cn2cnc3c(=O)[nH]c(NCCCCCCN)nc32)C(=O)Cn2ccc(N)nc2=O)C(=O)Cn2ccc(N)nc2=O)C(=O)Cn2cnc3c(=O)[nH]c(NCCCCCCN)nc32)C(=O)Cn2cnc3c(=O)[nH]c(N)nc32)C(=O)Cn2cc(C)c(=O)[nH]c2=O)C(=O)Cn2ccc(N)nc2=O)C(=O)Cn2cnc3c(N)ncnc32)C(=O)Cn2cnc3c(N)nc(NCCCCCN)nc32)C(=O)Cn2cnc3c(N)ncnc32)C(=O)Cn2cnc3c(=O)[nH]c(N)nc32)C(=O)Cn2cc(C)c(=O)[nH]c2=O)C(=O)Cn2ccc(N)nc2=O)C(=O)Cn2ccc(N)nc2=O)C(=O)Cn2cnc3c(N)nc(NCCCCCN)nc32)C(=O)Cn2ccc(N)nc2=O)c(=O)[nH]c1=O	inactive	79.2	
Cc1cn(CC(=O)N(CCNC(=O)CN(CCNC(=O)CN(CCNC(=O)CN(CCNC(=O)CN(CCNC(=O)CN(CCNC(=O)CN(CCNC(=O)CN(CCNC(=O)CN(CCNC(=O)CN(CCNC(=O)CN(CCNC(=O)CN(CCNC(=O)CN(CCN)C(=O)Cn2cnc3c(N)nc(NCCCCCN)nc32)C(=O)Cn2ccc(N)nc2=O)C(=O)Cn2cc(C)c(=O)[nH]c2=O)C(=O)Cn2ccc(N)nc2=O)C(=O)Cn2cnc3c(N)nc(NCCCCCN)nc32)C(=O)Cn2ccc(N)nc2=O)C(=O)Cn2cnc3c(=O)[nH]c(N)nc32)C(=O)Cn2cnc3c(=O)[nH]c(N)nc32)C(=O)Cn2ccc(N)nc2=O)C(=O)Cn2cc(C)c(=O)[nH]c2=O)C(=O)Cn2cc3cc(COCCN)[nH]c3nc2=O)C(=O)Cn2ccc(N)nc2=O)CC(=O)NCCN(CC(=O)NCCN(CC(=O)NCCN(CC(=O)NCCN(CC(=O)NCCN(CC(=O)NCCN(CC(=O)NCCN(CC(=O)O)C(=O)Cn2cnc3c(N)nc(NCCCCCN)nc32)C(=O)Cn2ccc(N)nc2=O)C(=O)Cn2cnc3c(=O)[nH]c(N)nc32)C(=O)Cn2cnc3c(=O)[nH]c(NCCCCCCN)nc32)C(=O)Cn2cc(C)c(=O)[nH]c2=O)C(=O)Cn2ccc(N)nc2=O)C(=O)Cn2ccc(N)nc2=O)c(=O)[nH]c1=O	inactive	> 90	
Cc1cn(CC(=O)N(CCNC(=O)CN(CCNC(=O)CN(CCNC(=O)CN(CCNC(=O)CN(CCNC(=O)CN(CCN)C(=O)Cn2ccc(N)nc2=O)C(=O)Cn2cnc3c(N)nc(NCCCCCN)nc32)C(=O)Cn2cnc3c(=O)[nH]c(N)nc32)C(=O)Cn2cnc3c(=O)[nH]c(N)nc32)C(=O)Cn2cc3cc(COCCN)[nH]c3nc2=O)CC(=O)NCCN(CC(=O)NCCN(CC(=O)NCCN(CC(=O)NCCN(CC(=O)NCCN(CC(=O)NCCN(CC(=O)NCCN(CC(=O)NCCN(CC(=O)O)C(=O)Cn2cnc3c(=O)[nH]c(NCCCCCCN)nc32)C(=O)Cn2cnc3c(=O)[nH]c(N)nc32)C(=O)Cn2cnc3c(=O)[nH]c(N)nc32)C(=O)Cn2cnc3c(=O)[nH]c(NCCCCCCN)nc32)C(=O)Cn2cc(C)c(=O)[nH]c2=O)C(=O)Cn2cc3cc(COCCN)[nH]c3nc2=O)C(=O)Cn2ccc(N)nc2=O)C(=O)Cn2ccc(N)nc2=O)c(=O)[nH]c1=O	inactive		
Cc1cn(CC(=O)N(CCNC(=O)CN(CCNC(=O)CN(CCNC(=O)CN(CCNC(=O)CN(CCNC(=O)CN(CCN)C(=O)Cn2cnc3c(N)nc(NCCCCCN)nc32)C(=O)Cn2cnc3c(N)ncnc32)C(=O)Cn2cnc3c(=O)[nH]c(N)nc32)C(=O)Cn2cnc3c(=O)[nH]c(N)nc32)C(=O)Cn2cc(C)c(=O)[nH]c2=O)CC(=O)NCCN(CC(=O)NCCN(CC(=O)NCCN(CC(=O)NCCN(CC(=O)NCCN(CC(=O)NCCN(CC(=O)NCCN(CC(=O)NCCN(CC(=O)NCCN(CC(=O)NCCN(CC(=O)NCCN(CC(=O)NCCN(CC(=O)NCCN(CC(=O)NCCN(CC(=O)O)C(=O)Cn2cnc3c(N)nc(NCCCCCN)nc32)C(=O)Cn2ccc(N)nc2=O)C(=O)Cn2cnc3c(N)ncnc32)C(=O)Cn2cnc3c(N)nc(NCCCCCN)nc32)C(=O)Cn2cc(C)c(=O)[nH]c2=O)C(=O)Cn2ccc(N)nc2=O)C(=O)Cn2ccc(N)nc2=O)C(=O)Cn2cnc3c(=O)[nH]c(N)nc32)C(=O)Cn2cnc3c(=O)[nH]c(N)nc32)C(=O)Cn2cnc3c(N)nc(NCCCCCN)nc32)C(=O)Cn2ccc(N)nc2=O)C(=O)Cn2ccc(N)nc2=O)C(=O)Cn2cc3cc(COCCN)[nH]c3nc2=O)C(=O)Cn2ccc(N)nc2=O)c(=O)[nH]c1=O	inactive	> 90	
Cc1cn(CC(=O)N(CCNC(=O)CN(CCNC(=O)CN(CCNC(=O)CN(CCNC(=O)CN(CCNC(=O)CN(CCNC(=O)CN(CCNC(=O)CN(CCNC(=O)CN(CCN)C(=O)Cn2cnc3c(N)nc(NCCCCCN)nc32)C(=O)Cn2ccc(N)nc2=O)C(=O)Cn2cnc3c(=O)[nH]c(N)nc32)C(=O)Cn2cnc3c(=O)[nH]c(NCCCCCCN)nc32)C(=O)Cn2ccc(N)nc2=O)C(=O)Cn2cc(C)c(=O)[nH]c2=O)C(=O)Cn2cc3cc(COCCN)[nH]c3nc2=O)C(=O)Cn2ccc(N)nc2=O)CC(=O)NCCN(CC(=O)NCCN(CC(=O)NCCN(CC(=O)NCCN(CC(=O)NCCN(CC(N)=O)C(=O)Cn2cnc3c(=O)[nH]c(N)nc32)C(=O)Cn2cnc3c(=O)[nH]c(NCCCCCCN)nc32)C(=O)Cn2cc(C)c(=O)[nH]c2=O)C(=O)Cn2ccc(N)nc2=O)C(=O)Cn2cc3cc(COCCN)[nH]c3nc2=O)c(=O)[nH]c1=O	inactive	81	
